Experimental data taken from patent publication US20120177567A1, “Methods of Treating Pediatric Acute Lymphoblastic Leukemia with an Anti-CD22 Immunotoxin” (priority 2010, published 2012).
Where two headings read alike, the source gives them in different places.

What was measured:
[1] = system: human bone marrow stromal cells; settings: 10 μmol/L, 72 h
Protocol: 2×10^4 Stromal cells were plated into each well of flat-bottomed 96-well plates and cultured until confluent. On day 1 of the assay, ALL cells were resuspended in RPMI-1640 medium, 10% heat-inactivated FBS, glutamine (1×) and sodium pyruvate (1×). 3×10^5 ALL cells were added to each well of stroma-coated plates. […] SS1P (50 ng/mL), an antimesothelin Pseudomonas immunotoxin, was used as a negative control. The cytotoxicity of dexamethasone (10 μmol/L) was also tested in this assay. Cells were incubated for a further 72 h in a humidified atmosphere at 37° C. with 5% CO2.
At the end of the assay, the stromal cells were incubated with WST-1.

[2] = system: B-lineage ALL cells; test: cells; settings: Homo sapiens
Description: Blood and bone marrow samples were obtained from 35 patients with B-lineage ALL (Table SI) treated at the National Cancer Institute (NCI), St Jude Children's Research Hospital (SJCRH) or Johns Hopkins Hospital (JHH) with informed consent. The majority (n=22) were obtained from individuals with multiply relapsed ALL who were referred to the NCI for Phase I clinical trial participation. Thirteen patient samples from initial diagnosis were randomly selected from those available in the tumor banks at SJCRH and JHH. Thirty-three cases were characterized as pre-B ALL by flow cytometry and two as Burkitt-type/mature B-cell ALL. In all cases, >80% blasts expressed CD19 and CD22 antigens by flow cytometry. Cells were cryopreserved in RPMI-1640 medium with 10% fetal bovine serum (FBS) and 10% dimethyl sulfoxide.
Briefly, human bone marrow stromal cells that had been immortalized by telomerase transfection (developed at St Jude Children's Research Hospital) were cultured in RPMI-1640 medium (Invitrogen, Carlsbad, Calif., USA) with 10% fetal calf serum (Sigma-Aldrich, St Louis, Mo., USA). 2×10^4 Stromal cells were plated into each well of flat-bottomed 96-well plates and cultured until confluent. On day 1 of the assay, ALL cells were resuspended in RPMI-1640 medium, 10% heat-inactivated FBS, glutamine (1×) and sodium pyruvate (1×). 3×10^5 ALL cells were added to each well of stroma-coated plates. […] SS1P (50 ng/mL), an antimesothelin Pseudomonas immunotoxin, was used as a negative control. The cytotoxicity of dexamethasone (10 μmol/L) was also tested in this assay. Cells were incubated for a further 72 h in a humidified atmosphere at 37° C. with 5% CO2.
The cells were harvested by vigorous pipetting, transferred to Falcon tubes (Cat. No. 352052; BD Biosciences, San Jose, Calif., USA) and labelled with mouse anti-human CD19 antibody conjugated to fluorescein isothiocyanate (Cat. No. 555412; BD Pharmingen, San Jose, Calif., USA). […] The cells were analysed with a FACScalibur flow cytometer in combination with CellQuest (Becton Dickinson, Franklin Lakes, N.J., USA) and FlowJo software (Tree Star Inc., Ashland, Oreg., USA).
Viability was assessed by setting gates based on the light scatter properties of the blasts. Due to spontaneous cell death, the relative percentage of viable cells at the end of the assay was calculated using the following formula: (no. of CD19^+ viable cells recovered in test well/no. of CD19^+ viable cells in untreated well×100). […]
An exact Wilcoxon rank sum test was used to determine the statistical significance of the difference in unpaired observations between two groups of pediatric patients. […] Correlations between parameters were evaluated using Spearman rank correlation analysis.

C[C@@H]1C[C@H]2[C@@H]3CCC4=CC(=O)C=C[C@]4(C)[C@@]3(F)[C@@H](O)C[C@]2(C)[C@@]1(O)C(=O)CO [dexamethasone, Dexamethasone]
stromal cells compared to untreated controls (WST-1) [1]: no difference
viability at 10 µM ([2]; 72 h, read-out: percentage of viable ALL cells, range, 10 μmol/l, 72 h): 4 to 158%
viability at 10 µM ([2]; read-out: percentage of viable ALL cells, median, 10 μmol/l, ALL samples from diagnosis): 29%
viability at 10 µM ([2]; read-out: percentage of viable ALL cells, median, 10 μmol/l, all samples): 40%
viability at 10 µM ([2]; read-out: percentage of viable ALL cells, median, 10 μmol/l, relapse samples): 42%
